Experimental data as given in patent US9777002B2, “Inhibitors of the renal outer medullary potassium channel” (Merck Sharp & Dohme Corp., priority 2012, dated 2017).

Target: T1, hROMK (hKir1.1) (Homo sapiens, UniProt P48048)
T1 construct: expressed in transfected cells
T1 sequence (P48048 1-391): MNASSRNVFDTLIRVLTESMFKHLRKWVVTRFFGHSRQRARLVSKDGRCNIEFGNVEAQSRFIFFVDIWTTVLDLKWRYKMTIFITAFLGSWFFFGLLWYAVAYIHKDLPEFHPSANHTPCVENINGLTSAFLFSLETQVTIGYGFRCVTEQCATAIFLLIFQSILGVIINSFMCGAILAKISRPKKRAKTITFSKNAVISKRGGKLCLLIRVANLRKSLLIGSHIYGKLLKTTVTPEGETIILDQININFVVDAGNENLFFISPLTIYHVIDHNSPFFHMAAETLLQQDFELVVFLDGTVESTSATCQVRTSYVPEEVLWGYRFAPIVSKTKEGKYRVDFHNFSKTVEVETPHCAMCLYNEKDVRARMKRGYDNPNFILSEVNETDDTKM
Assay: Thallium Flux Assay
Type: cell-based
Details: HEK293 cells stably expressing hROMK (hKir1.1)
Protocol: Cell Culture Conditions—HEK293 cells stably expressing hROMK (hKir1.1) were grown at 37° C. in a 10% CO2 humidified incubator in complete growth media: Dulbecco's Modified Eagle Medium supplemented with non-essential amino acids, Penicillin/Streptomycin/Glutamine, G418 and FBS. At >80% confluency, aspirate the media from the flask and rinse with 10 mL Calcium/Magnesium-free PBS. Add 5 mL of 1× trypsin (prepared in Ca/Mg Free PBS) to T-225 flask and return flask to 37° C./CO2 incubator for 2-3 minutes. To dislodge the cell, gently bang the side of the flask with your hand. Triturate the cells completely and then transfer the cells to 25 mL complete media. Centrifuge at 1,500 rpm for 6 min followed by resuspension in complete growth media and determine cell concentration. For typical re-seeding, 4E6 cells/T-225 flask will attain >80% confluency in 4 days. Under ideal growth conditions and appropriate tissue culture practices, this cell line is stable for 40-45 passages.
FluxOR Kit Components (Invitrogen F10017)
• FluxOR™ Reagent (Component A) • FluxOR™ Assay Buffer (Component B)—10× Concentrate • PowerLoad™ Concentrate (Component C)—100× Concentrate • Probenecid (Component D)—Lyophilized sample is kept at −20° C. Water soluble, 100× after solubilization in 1 mL water. Store at 4° C. • FluxOR™ Chloride-free Buffer (Component E)—5× Concentrate • Potassium sulfate (K2SO4) Concentrate (Component F)—125 mM in water. Store at 4° C. • Thallium sulfate (Tl2SO4) Concentrate (Component G)—50 mM in water. Store at 4° C. • DMSO (dimethyl sulfoxide, Component H)—1 mL (100%) Reagent Preparation: FluxOR Working Solutions • 1000× FluxOR™ Reagent: Reconstitute a vial of component A in 100 μl DMSO; Mix well; Store 10 μl aliquots at −20° C. • 1× FluxOR™ Assay Buffer: Dilute Component B 10-fold with water; Adjust pH to 7.4 with Hepes/NaOH; Filter and store at 4° C. • Probenecid/Assay Buffer: 100 mL of 1× FluxOR™ Assay Buffer; 1 mL of reconstituted component D; Store at 4° C. • Loading Buffer (per microplate): 10 μl 1000× FluxOR™ Reagent; 100 μl component C; 10 mL Probenecid/Assay Buffer • Compound Buffer (per microplate): 20 mL Probenecid/Assay Buffer; 0.3 mM ouabain (10 mM ouabain in water can be stored in amber bottle/aluminum foil at room temperature); Test compound • 1× FluxOR™ Chloride-Free Buffer: Prepare 1× working solution in water. Can be stored at room temperature • Stimulant Buffer (prepared at 5× final concentration in 1× FluxOR™Chloride-Free Buffer): 7.5 mM Thallium sulfate and 0.75 mM Potassium sulfate (to give a final assay concentration of 3 mM Thallium/0.3 mM Potassium). Store at 4° C. when not in use. If kept sterile, this solution is good for months.
Assay Protocol—The ROMK channel functional thallium flux assay is performed in 384 wells, using the FLIPR-Tetra instrument. HEK-hKir1.1 cells are seeded in Poly-D-Lysine microplates and kept in a 37° C.-10% CO2 incubator overnight. On the day of the experiment, the growth media is replaced with the FluxOR™ reagent loading buffer and incubated, protected from light, at ambient temperature (23-25° C.) for 90 min. The loading buffer is replaced with assay buffer± test compound followed by 30 min incubation at ambient temperature, where the Thallium/Potassium stimulant is added to the microplate.
• 1. Seed HEK-hKir1.1 cells (50 μl at 20,000 cells/well) in 384-well PDL coated Microplates • 2. Allow cells to adhere overnight in humidified 37° C./10% CO2 incubator • 3. Completely remove cell growth media from microplate and replace with 25 μl loading buffer • 4. Incubate Microplate at room temperature, protected form light, for 90 min • 5. Remove loading buffer and replace with 25 μl 1× Assay Buffer±test compound. • 6. Incubate microplate at room temperature, protected from light, for 30 min • 7. At FLIPR-Tetra 384: Add stimulant (Thallium/Potassium) solution to microplate and monitor fluorescence. Excitation=400 nm, Emission=460 & 580 nm. Collect data for ˜10 min. […]

Cc1nc(C(=O)N[C@H]2CCN(C[C@H](O)c3ccc4c(c3C)COC4=O)C[C@H]2F)ccc1C#N (single isomer, unassigned) [44 A]
IC50: 570 nM

Cc1c([C@@H](O)CN2CCC(C)(NC(=O)c3ccc(-n4cnnn4)nc3)CC2)ccc2c1COC2=O [Example 51, (R)-N-(1-(2-Hydroxy-2-(4-methyl-1-oxo-1,3-dihydroisobenzofuran-5-yl)ethyl)-4-methylpiperidin-4-yl)-6-(1H-tetrazol-1-yl)nicotinamide]
IC50: 390 nM

Cc1c([C@@H](O)CN2CCC(NC(=O)c3ccc(-n4cccn4)nc3)CC2)ccc2c1COC2=O [Example 73, (R)-N-(1-(2-Hydroxy-2-(4-methyl-1-oxo-1,3-dihydroisobenzofuran-5-yl)ethyl)piperidin-4-yl)-6-(1H-pyrazol-1-yl)nicotinamide]
IC50: 270 nM

Cc1cc(C(=O)NC2CCN(C[C@H](O)c3ccc4c(c3C)COC4=O)CC2)ccc1C#N [Example 25, (R)-4-Cyano-N-(1-(2-hydroxy-2-(4-methyl-1-oxo-1,3-dihydroisobenzofuran-5-yl)ethyl)piperidin-4-yl)-3-methylbenzamide]
IC50: 30 nM

Cc1c([C@@H](O)CN2CCCC(C)(CNC(=O)c3ccc(-n4cnnn4)nc3)C2)ccc2c1COC2=O (stereo partly drawn) [Example 83, N-((1-((R)-2-Hydroxy-2-(4-methyl-1-oxo-1,3-dihydroisobenzofuran-5-yl)ethyl)-3-methylpiperidin-3-yl)methyl)-6-(1H-tetrazol-1-yl)nicotinamide]
IC50: 720 nM

Cc1c(C(O)CN2CCC(NC(=O)c3ccc4c(c3)COC4=O)CC2)ccc(F)c1C#N (stereo not shown) [Example 13, N-(1-(2-(3-Cyano-4-fluoro-2-methylphenyl)-2-hydroxyethyl)piperidin-4-yl)-1-oxo-1,3-dihydroisobenzofuran-5-carboxamide]
IC50: 350 nM

Cc1c([C@@H](O)CN2CCC(NC(=O)c3ccc(-n4cccn4)cc3)CC2)ccc2c1COC2=O [Example 37, (R)-N-(1-(2-Hydroxy-2-(4-methyl-1-oxo-1,3-dihydroisobenzofuran-5-yl)ethyl)piperidin-4-yl)-4-(1H-pyrazol-1-yl)benzamide]
IC50: 100 nM

Cc1c([C@@H](O)CN2CCC(NC(=O)c3ccc(C#N)nc3)CC2)ccc2c1COC2=O [Example 24, (R)-6-Cyano-N-(1-(2-hydroxy-2-(4-methyl-1-oxo-1,3-dihydroisobenzofuran-5-yl)ethyl)piperidin-4-yl)nicotinamide]
IC50: 150 nM

Cc1cc(C(=O)NC2CCN(CCc3ccc4c(c3C)COC4=O)CC2)ncc1C#N [Example 19, 5-Cyano-4-methyl-N-(1-(2-(4-methyl-1-oxo-1,3-dihydroisobenzofuran-5-yl)ethyl)piperidin-4-yl)picolinamide]
IC50: 50 nM

Cc1cc(C(=O)NC2(C)CCN(C[C@H](O)c3ccc4c(c3C)COC4=O)CC2)ncc1-n1cnnn1 [Example 63, (R)-N-(1-(2-Hydroxy-2-(4-methyl-1-oxo-1,3-dihydroisobenzofuran-5-yl)ethyl)-4-methylpiperidin-4-yl)-4-methyl-5-(1H-tetrazol-1-yl)picolinamide]
IC50: 860 nM

Cc1c(CCN2CCC(NC(=O)c3cccc(-n4cnnn4)c3)CC2)ccc2c1COC2=O [Example 30, N-(1-(2-(4-Methyl-1-oxo-1,3-dihydroisobenzofuran-5-yl)ethyl)piperidin-4-yl)-3-(1H-tetrazol-1-yl)benzamide]
IC50: 120 nM

C[C@H]1Cc2cc(CCN3CCC(NC(=O)c4ccc5c(c4)COC5=O)CC3)ccc2C(=O)O1 [Example 4, (S)-N-(1-(2-(3-methyl-1-oxoisochroman-6-yl)ethyl)piperidin-4-yl)-1-oxo-1,3-dihydroisobenzofuran-5-carboxamide]
IC50: 320 nM

Cc1c([C@@H](O)CN2CCC(C)(CNC(=O)c3ccc(-n4cnnn4)cn3)C2)ccc2c1COC2=O (single isomer, unassigned) [69 A]
IC50: 880 nM

Cc1cc(C(=O)N[C@H]2CCN(C[C@H](O)c3ccc4c(c3C)COC4=O)C[C@H]2F)ccc1C#N (single isomer, unassigned) [47 B]
IC50: 180 nM

Cc1cc(F)c(C(=O)NC2CCN(CCc3ccc4c(c3C)COC4=O)CC2)cc1C#N [Example 18, 5-Cyano-2-fluoro-4-methyl-N-(1-(2-(4-methyl-1-oxo-1,3-dihydroisobenzofuran-5-yl)ethyl)piperidin-4-yl)benzamide]
IC50: 950 nM

Cc1c([C@@H](O)CN2CCC(NC(=O)c3ccc(C#N)cc3F)CC2)ccc2c1COC2=O [Example 45, (R)-4-Cyano-2-fluoro-N-(1-(2-hydroxy-2-(4-methyl-1-oxo-1,3-dihydroisobenzofuran-5-yl)ethyl)piperidin-4-yl)benzamide]
IC50: 450 nM

Cc1c([C@@H](O)CN2C3CCC2CC(NC(=O)c2ccc(-n4cnnn4)nc2)C3)ccc2c1COC2=O (stereo partly drawn) [Example 82, N-(8-((R)-2-Hydroxy-2-(4-methyl-1-oxo-1,3-dihydroisobenzofuran-5-yl)ethyl)-8-azabicyclo[3.2.1]octan-3-yl)-6-(1H-tetrazol-1-yl)nicotinamide]
IC50: 250 nM

Cc1c([C@@H](O)CN2CCC(NC(=O)c3ccc(-n4cnnn4)c4ncccc34)CC2)ccc2c1COC2=O [Example 79, (R)-N-(1-(2-Hydroxy-2-(4-methyl-1-oxo-1,3-dihydroisobenzofuran-5-yl)ethyl)piperidin-4-yl)-8-(1H-tetrazol-1-yl)quinoline-5-carboxamide]
IC50: 370 nM

Cc1c([C@@H](O)CN2C3CCC2CC(NC(=O)c2ccc(-n4cnnn4)cn2)C3)ccc2c1COC2=O (stereo partly drawn) [Example 76, N-(8-((R)-2-Hydroxy-2-(4-methyl-1-oxo-1,3-dihydroisobenzofuran-5-yl)ethyl)-8-azabicyclo[3.2.1]octan-3-yl)-5-(1H-tetrazol-1-yl)picolinamide]
IC50: 430 nM

COc1cc(F)c(C#N)cc1C(=O)NC1CCN(C[C@@H](O)c2ccc3c(c2C)COC3=O)CC1 [Example 21, (S)-5-Cyano-4-fluoro-N-(1-(2-hydroxy-2-(4-methyl-1-oxo-1,3-dihydroisobenzofuran-5-yl)ethyl)piperidin-4-yl)-2-methoxybenzamide]
IC50: 150 nM

Cc1c(CCN2CCC(NC(=O)c3ccc4nonc4c3)CC2)ccc2c1COC2=O [Example 8, N-(1-(2-(4-Methyl-1-oxo-1,3-dihydroisobenzofuran-5-yl)ethyl)piperidin-4-yl)benzo[c][1,2,5]oxadiazole-5-carboxamide]
IC50: 460 nM

Cc1cc(C(=O)NC2CCN(C[C@H](O)c3ccc4c(c3C)COC4=O)CC2)ccc1-n1cnnn1 [Example 78, (R)-N-(1-(2-Hydroxy-2-(4-methyl-1-oxo-1,3-dihydroisobenzofuran-5-yl)ethyl)piperidin-4-yl)-3-methyl-4-(1H-tetrazol-1-yl)benzamide]
IC50: 560 nM
